Entries after “also recorded” stand apart in the source; their conditions may differ. Read-outs that look alike come from different tables or passages of the source.
Legend:
[1] = test system: 15-PGDH-luciferase fusion reporter in V9m, LS174T and V503 cell lines; assay: 15-PGDH-luciferase fusion gene reporter induction in three colon cancer cell lines (stated jointly); format: cell-based
[2] = biological target: recombinant 15-PGDH protein (Homo sapiens (Human), UniProt P15428); assay: Inhibition of enzymatic activity of recombinant 15-PGDH in vitro; format: biochemical; settings: for inhibition at […]: read-out: Enzyme inhibition % ([…]), recombinant 15-PGDH, […] compound;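 on all read-outs here: activity of recombinant human 15-PGDH assayed in vitro using PGE2 as the substrate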
Sequence of recombinant 15-PGDH protein (P15428 whole entry): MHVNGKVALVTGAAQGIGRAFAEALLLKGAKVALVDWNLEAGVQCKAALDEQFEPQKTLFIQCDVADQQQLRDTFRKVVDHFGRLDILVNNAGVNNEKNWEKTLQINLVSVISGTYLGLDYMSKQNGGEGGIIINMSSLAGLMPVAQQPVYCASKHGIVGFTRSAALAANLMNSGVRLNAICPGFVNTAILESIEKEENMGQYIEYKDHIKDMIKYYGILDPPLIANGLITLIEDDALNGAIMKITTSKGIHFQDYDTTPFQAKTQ

A549 cells [3] = assay: PGE2 levels in medium of IL1-beta stimulated A549 cells; format: cell-based; settings: IL1-beta stimulated A549 cells
A549 cells [4] = assay: Cellular toxicity on A549 cells (CellTiter-Glo, cell numbers); format: cell-based; settings: 24 hours; up to 10 uM in FIG. 38
Method: Time to inhibition refers to the time needed to inhibit the generation of NADH by 15-PGDH from the moment with drug is added into the reaction mix. Delta™ refers to the shift in melting temperature of recombinant 15-PGDH in the presence of drug (with cofactor NADH also present). Concentration of Full Cell Line Reporter Induction refers to the concentration of drug that needs to be added to reporter cell line to achieve maximal induction of the 15-PGDH-luciferase gene fusion reporter cassette, as measured by luciferase assays. Hepatocyte stability refers to the half-life of compound in the presence of hepatocytes in culture. Toxicity refers to the concentration of compound needed to decrease cell numbers in a cell culture assay.
FIGS. 38(A-C) show assays of cellular toxicity on A549 cells at 24 hours of 15-PGDH inhibitors as assayed by CellTiter-Glo measurement.
FIGS. 84(A-C) show at left (84A) activity in lowering PGE2 levels in media of A549 cells that are stimulated to produce PGE2 by treatment with IL1-beta.

[5] = Metabolic stability with murine liver S9; format: in vitro ADME
Method: SW054384 (2 mM in DMSO) was incubated with Murine S9 (Lot KWB) fraction and Phase I (NADPH Regenerating System) cofactors for 0-240 minutes. Reactions were quenched with a 1 mL (1:1) of MeOH/(+)IS/0.2% Formic Acid, vortexed for 15 seconds, incubated at RT for 10 minutes and spun for 5 minutes at 2400 rpms. […] Supernatant (800 μL) was transferred to an HPLC vial (w/out insert) and analyzed by HPLC/MS. A: dH2O+0.1% FA B: MeOH+0.1% FA
SW125991 (2 mM in DMSO) was incubated with Murine S9 (Lot KWB) fraction and Phase I (NADPH Regenerating System) cofactors for 0-240 minutes. Reactions were quenched with 1 mL (1:1) of methanol containing 0.2% formic acid and 100 ng/ml IS (IS final conc.=50 ng/ml). Samples were vortexed for 15 seconds, incubated at RT for 10 minutes and spun for 5 minutes at 2400 rpm. […] Supernatant (800 μL) was transferred to an HPLC vial (w/out insert). Analyzed by Qtrap 3200 mass spectrometer.

[6] = test system: wild-type mouse bone marrow; assay: Hematopoietic colonies from bone marrow treated ex vivo; format: cell-based; settings: 1 uM, ex vivo on ice for 2 hours; compared with SW033291
Text: Treated marrow is again then plated into methylcellulose for counting of hematopoietic colonies.

| inhibition at […] ([2]; read-out: Enzyme inhibition % (2.5 μM)) [%] | inhibition at […] ([2]; read-out: Enzyme inhibition % (7.5 μM)) [%] | Compound | Induction of 15-PGDH-luciferase reporter, in words [1] | Inhibition of recombinant 15-PGDH, in words [2] | Effect on PGE2 levels in medium, in words (A549 cells [3]) | Toxicity, CellTiter-Glo (A549 cells [4]) | Metabolic stability, in words [5] | Increase in bone marrow derived colonies, in words [6] |
| --- | --- | --- | --- | --- | --- | --- | --- | --- |
| 11.6 | 31.6 | COc1ccc(OC)c(N(CC(=O)N2CCOCC2)S(=O)(=O)c2ccccc2)c1 [SW125991] | retains activity in induction of the 15-PGDH-luciferase reporter assay; also recorded: active in inducing the 15-PGDH-luciferase reporter | less inhibition of 15-PGDH at high compound concentration; also recorded: lesser inhibitory activity at high concentration | show activity in lowering PGE2 | no toxicity | marked improvement in metabolic stability | – |
| – | – | CCCCC(C)(C)[C@H](O)/C=C/[C@H]1[C@H](O)CC(=O)[C@@H]1C/C=C\CCCC(=O)O [dmPGE2, 16,16-dimethyl PGE2] | – | – | – | – | – | slightly greater increase |
